Test results reported in patent US20250360099A2, “A significantly non-toxic novel Cobalt(III) Schiff base complex induces apoptosis via G2-M cell cycle arrest in human breast cancer cell line MCF-7 and cell cycle arrest of colon cancer cell lines HCT-116 and SW- 480 via G0-G1” (CHITTARANJAN NATIONAL CANCER INSTITUTE, priority 2023, published 2025).
Read-outs that look alike come from different tables or passages of the source.

Experiments:
[1] = tested on: SW-480; experiment: MTT study with OCT3 inhibitor, SW-480; format: cell-based, human; settings: at the respective doses of inhibitor
[2] = tested on: HCT-116; experiment: MTT study with OCT3 inhibitor, HCT-116; format: cell-based, human; settings: at the respective doses of inhibitor
[3] = tested on: SW-480; experiment: Wound healing (scratch) assay, SW-480; format: cell-based, human; settings: IC50 dose, 12-48 h
[4] = tested on: HCT-116; experiment: Cell cycle distribution (PI), HCT-116; format: cell-based, human; settings: 24 h
[5] = tested on: SW-480; experiment: Cell cycle distribution (PI), SW-480; format: cell-based, human; settings: 24 h
[6] = tested on: Human colon cancer cell line SW-480; experiment: XTT assay, cytotoxicity on SW-480; format: cell-based; settings: 24 h
Source text: (§1) Colon cancer cell lines and culture condition: Human colon cancer cell lines HCT-116 and SW-480 were purchased from NCCS, Pune. The carcinoma cell line (HCT-116) is wild-type for TP53 and adenocarcinoma cell line (SW480) is a double-mutant for TP53 gene.

[7] = tested on: MCF-7 cells; experiment: FACS-based Annexin V-FITC/PI dual staining assay; format: cell-based, human; settings: IC50 dose, 24 h
Protocol: FACS-based Annexin V-FITC/PI dual staining assay: MCF-7 cells were seeded in 6-well plate at 1×10^5 cells per well and treated with an IC50 dose of complex 1 and oxaliplatin for 24 h, after which they were harvested by trypsinization and processed into cell suspensions (10^6 cells were taken from each group). Cells were centrifuged at 800 g before being re-suspended in a dye mix that included 250 μL Annexin V-FITC binding buffer, 1 μL PI solution, and 3 μL Annexin V-FITC solution as per assay kit protocol. For 15 minutes, the cell suspension was kept in dark. The BD FACS Verse was used to detect the intensities of red and green fluorescence, and Flowjo software (version 10) was used to assess the apoptotic rates of treated cells. Ten thousand events were collected to determine the population percentage. All experiments were repeated three times, and the results were presented as mean±SD.

[8] = tested on: MCF-7 cells; experiment: CFSE cell proliferation assay (FACS); format: cell-based, human; settings: IC50 dose, 24 h
Protocol: (§2) Cell proliferation and cycle study using FACS: To detect cell proliferation, CFSE dye was used. At first, MCF-7 cells were stained with 5 μM of CFSE dye for 15 min at 37° C. followed by the addition of FBS containing RPMI 1640 medium to end the reaction. Then CFSE-stained cells were cultured with both oxaliplatin and complex 1 for 24 h in 35-mm plates. One set of stained untreated cells was seeded only in complete media without any compound. For inhibition of proliferation, cells were grown in a serum-free medium (starvation) for 24 h as a positive control. On the next day, the green fluorescence intensity of CFSE within each cell was measured by flow cytometry, and data were calculated using Flowjo software (version 10). For cell cycle study, MCF-7 cells were seeded at 1×10^5 cells per well in a 6-well plate, treated with an IC50 dose of complex 1 and oxaliplatin for 24 h, then digested by trypsinization and made into cell suspension (10^6 cells were harvested from each group) in 2% FBS containing 1×PBS, followed by fixation in 70% ethanol overnight at 4° C. After that cells were centrifuged at 850×g in a low-temperature centrifuge for 5 min. […] BD FACS flow cytometer was used to assess the difference in cell cycle phase distribution of nuclear DNA, which was then analyzed using Flowjo software (version 10). […]

[9] = tested on: SW-480; experiment: CFSE cell proliferation, SW-480; format: cell-based, human; settings: respective IC50 dose, 24 h
[10] = tested on: SW-480; experiment: Annexin V-FITC/PI-PE dual staining, SW-480; format: cell-based, human; settings: respective IC50 dose, 24 h
[11] = tested on: HCT-116 cells; experiment: TUNEL staining, fluorescence microscopy; format: cell-based, human; settings: 24 h
[12] = tested on: human breast cancer cell line MCF-7; experiment: MTT assay, cytotoxicity on breast cancer cells
Protocol: Breast cancer cell line and culture condition: Cells were cultured in a humidified air-jacked CO2 incubator (Thermo scientific, Heracellvios 160i). […] Human breast cancer cells lines MCF-7, were purchased from NCCS, Pune. […] The cells were cultured as monolayers in RPMI-1640 supplemented with 10% heat-inactivated fetal bovine serum (FBS), 1% penicillin-streptomycin, and 1% antibiotic-antimycotics and 1% non-essential amino acids at 37° C. in a fully humidified air-jacketed incubator of 5% CO2 and 95% air. All the experiments were performed from exponentially growing passage of 15 or less with 80% cell confluency and then sub-cultured to a fresh media to keep cells healthy and actively growing.
The MTT assay is a quantitative, sensitive, and reliable colorimetric assay that mainly measures cell viability and proliferation. […] The cells viability was estimated spectrophotometrically by measuring absorbance at 570 nm using an ELISA plate reader. To calculate the cell viability percentage, the average absorbance of each treatment group was acquired and normalized based on the untreated control. The half inhibitory concentration (IC50 value) was calculated by putting the experimental data with the dose-response model (Prism 6, Version 6.0b, GraphPad Software).

[13] = tested on: Human colon cancer cell line HCT-116; experiment: XTT assay, cytotoxicity on HCT-116; format: cell-based; settings: 24 h
Source text: as §1

[14] = tested on: HCT-116; experiment: Wound healing (scratch) assay, HCT-116; format: cell-based, human; settings: IC50 dose, 12-48 h
[15] = tested on: HCT-116; experiment: CFSE cell proliferation, HCT-116; format: cell-based, human; settings: respective IC50 dose, 24 h
[16] = tested on: HCT-116; experiment: Annexin V-FITC/PI-PE dual staining, HCT-116; format: cell-based, human; settings: respective IC50 dose, 24 h
[17] = tested on: MCF-7 cells; experiment: Cell cycle study by flow cytometry after PI staining; format: cell-based, human; settings: IC50 concentration, 24 h; untreated 8.88%
Protocol: as §2

Compound | toxicity of the inhibitor itself, SW-480 [1] | toxicity of the inhibitor itself, HCT-116 [2] | migration of cells vs untreated, SW-480 [3] | cell cycle distribution, HCT-116 [4] | cell cycle distribution, SW-480 [5] | IC50 [6] | late apoptotic (Annexin V+/PI+) population ([7]; untreated 2.87%) | early apoptotic population (Annexin V+/PI−) ([7]; untreated 4.96%) | CFSE staining intensity vs untreated controls [8] | cell proliferation, SW-480 [9] | number of apoptotic cells vs untreated, SW-480 [10] | TUNEL-positive cells vs untreated control [11] | IC50 ([12]; read-out: IC50, cytotoxicity on MCF-7 cells, 24 h, mean±SD) | IC50 ([12]; read-out: IC50, cytotoxicity on MCF-7 cells, 48 h, mean±SD) | IC50 [13] | migration of cells vs untreated, HCT-116 [14] | cell proliferation, HCT-116 [15] | number of apoptotic cells vs untreated, HCT-116 [16] | population of cells in the G2-M phase [17]
CCN1/C(=C/c2ccc3ccccc3[n+]2CC)C=Cc2ccccc21.[I-] [Dycenium-22] | non-toxic | non-toxic | – | – | – | – | – | – | – | – | – | – | – | – | – | – | – | – | –
O=C1[O][Pt]2([NH][C@@H]3CCCC[C@H]3[NH]2)[O]C1=O [oxaliplatin, reference compound] | – | – | reduced the migration of cells | cell cycle arrest at G0-G1 phase | cell cycle arrest at G0-G1 phase | 7.87 ± 1.54 µM | 23.9% | 9.58% | significantly higher | suppressed the cell proliferation | elevated the number of apoptotic cells | increased number of TUNEL-positive cells | 31.4 ± 0.69 µM | 15.1 ± 1.81 µM | 16.7 ± 1.78 µM | reduced the migration of cells | suppressed the cell proliferation | elevated the number of apoptotic cells | 21.3%
